Data on one compound can be found in patent US12208093B2 (THE JOHNS HOPKINS UNIVERSITY, priority 2016, dated 2025).

The test system of one data set is MDM2-p53. The data set is described as follows: Co-immunoprecipitation of MDM2 and p53; MDM2 and p53 expression. It counts as cell-based, human. As to conditions: contact-inhibited infected cells. The source says:
(§1) SDS-polyacrylamide gel electrophoresis and immunoblot analysis. Cell lysates were quantified for protein content using bicinchoninic acid (BCA) protein assay kit (Pierce Chemical, Rockford, IL). Equivalent amount of proteins were used for Western blot analysis as described previously. Protein bands were visualized by chemiluminescence using Western Blotting Luminol Reagent (Santa Cruz Biotechnology, Santa Cruz, CA). The following antibodies were used for detection of HCMV proteins: mouse anti-IE1 and IE2, (MAb810); mouse anti-UL44 (Santa Cruz biotechnology Santa Cruz, CA); mouse monoclonal anti-pp65 (Vector laboratories, Burlingame, CA); mouse monoclonal anti-β-actin antibody (Millipore, Billerica, MA); rabbit polyclonal anti-RPS14 and mouse monoclonal anti-MDM2 (AbCam, Cambridge, UK), mouse monoclonal anti-p53 (Santa Cruz, CA); horseradish peroxidase (HRP)-conjugated goat anti-rabbit IgG (Cell Signaling); and HRP-conjugated sheep anti-mouse IgG, (GE Healthcare, Waukesha, WI). For detection of co-immunoprecipitated proteins, protein A-HRP conjugate (Cell Signaling Technologies, Beverly, MA) was used as secondary antibody to eliminate the interfering IgG bands.
(§2) Co-immunoprecipitation (IP) and immunoblotting. Non-infected, infected or emetine-treated HFFs were treated with MG132 (10 μM) for 12 h. […] 1 mg of lysate was precleared with bead slurry for 30 min. The precleared lysates were incubated with anti-MDM2 (2 μg) antibody overnight. The antibody complexes were isolated using protein A/G beads (Santa Cruz), washed three times with 50% IP buffer. The immunoprecipitate—protein A/G beads were boiled in SDS sample buffer, and the supernatant was analyzed on SDS-PAGE gels after immunoblotting as described previously. […] Reverse IPs were performed by pulling down the precleared lysates with either anti-p53 antibody or anti-RPS14 antibody and detected with MDM2. […] In other experiments, transfected or treated HEK293 cell lysates were pulled-down with anti-IE2 antibody and detected with anti-MDM2 antibody and vice-versa for reverse IP.

Data set [1] has as its system pp28-luciferase HCMV Towne. The data set is described as follows: Drug combination emetine + GCV, Bliss model. It is filed as cell-based, human cytomegalovirus (HCMV). As to conditions: combined with ganciclovir (GCV), dihydrochloride hydrate. The protocol: Drug combination. The combined inhibitory effect of compounds on HCMV replication was determined in infected HFFs. A dose response curve was first generated for each compound; the EC50 and slope were calculated. […] The Bliss model was used for quantification of the effect of two compounds on HCMV replication (40). In this model, drug combination represents the product of two probabilistically independent events as described in the following equation (41): […]
The combined effect of two inhibitors (FU, fractional unaffected) is computed as the product of individual effects of the two inhibitors, FU1 and FU2. If the ratio of observed fold inhibition divided by the expected fold inhibition is greater than 1, the compounds are synergistic. If the ratio is less than 1, the combination is considered antagonistic, and if it equals to 1 the combination is additive.

Another data set deals with T1, RPS14 and MDM2 (Homo sapiens, UniProt P62263+Q00987).
T1 construct: endogenous in cells; host or cells: Human foreskin fibroblasts (HFFs, ATCC CRL-2088), infected with HCMV Towne
The data set is described as follows: Co-immunoprecipitation of RPS14 and MDM2; RPS14 expression and ubiquitination. It counts as cell-based.
Source text: as §1, §2

Data set [2] has as its system HCMV proteins IE1/2, UL44 and pp65. In words: Western blot of HCMV protein expression. It counts as cell-based, human cytomegalovirus (HCMV). The settings on record: 72 hpi.
Source text: as §1

The conditions of data set [3]: human; cited from earlier work.
In another data set the test system is p21 mRNA. The data set is described as follows: qRT-PCR for p21 in infected HFFs. As to conditions: contact-inhibited cells, emetine 75 nM, p<0.01. It counts as cell-based, human. From the text:
RNA isolation and real time quantitative reverse transcriptase (qRT) PCR. Total RNA was isolated from cultured cells using RNeasy Mini kit (Qiagen, Georgetown, MD) according to manufacturer's instructions. RevertAid first strand cDNA synthesis kit (Fermentas life sciences, Cromwell Park, MD) was used to synthesize first strand cDNA from total RNA using oligo-dT primers. Negative reverse-transcriptase (−RT) reactions were included to ensure the specificity of qRT-PCR reactions. Synthesis of first strand cDNA from mRNA template was carried out at 42° C. for 1 h. Quantitative RT-PCR (qRT-PCR) was performed using specific primers for p21 (F: 5′ […] 3′ (SEQ ID NO:3); R: 5′ […] 3′) (SEQ ID NO:4) and SYBR green (Fermentas life science) with two-step cycling protocol (95° C. for 15 s, 60° C. for 1 min). Reactions were performed in triplicates and GAPDH (F: 5′ […] 3′ (SEQ ID NO:5); R: 5′ […] 3′ (SEQ ID NO:6)) was used as the internal control.
Background: Quantitative PCR measures a nucleic acid by following its amplification.

Data set [4] relates to pp28-luciferase HCMV Towne. In words: Add on and removal studies. It counts as cell-based, human cytomegalovirus (HCMV). As to conditions: luciferase at 72 hpi. As to the method:
Add on and removal studies. […] For time-of-removal studies, the medium containing the compounds was removed at 0, 6, 12, 24, 36 and 48 hpi, cells were washed three times with phosphate-buffered saline (PBS), and drug-free medium was added. Luciferase activity was determined at 72 hpi.

Each structure is given as a SMILES string. Structures can show the parent of a compound that is named as a salt.

Broadly, the half-life is the time in which the quantity being followed falls by half. Take `CC[C@H]1CN2CCc3cc(OC)c(OC)cc3[C@@H]2C[C@@H]1C[C@H]1NCCc2cc(OC)c(OC)cc21` [emetine, emetine dihydrochloride hydrate]: the tolerability in mice entry is “well-tolerated”. Moreover, in the data set with MDM2-p53 (72 hpi), the MDM2 expression result is given as “increased” and the p53 expression entry was “increased”. Also, the “HCMV-induced interaction between MDM2 and p53” value in the data set with MDM2-p53 (not cycling cells, MG132) is reported as “disrupted”. The “combined effect of emetine and GCV on virus inhibition” value in data set [1] was “synergistic virus inhibition”. Also, at RPS14 and MDM2 (24 hpi, contact-inhibited infected cells, not cycling cells, MG132 present), the “interaction between RPS14 and MDM2” value is given as “strongly induced”. Moreover, the “HCMV-induced RPS14 expression” value at RPS14 and MDM2 (72 hpi, contact-inhibited infected cells, emetine 75 nM) was “reduced”. Moreover, the “ubiquitinated RPS14” value on RPS14 and MDM2 (72 hpi, only in contact-inhibited cells, MG132) is “increased”. Further, the “expression of HCMV proteins IE1/2, UL44 and pp65” value in data set [2] was “significantly reduced”. Further, the “viral UL44 and pp65 expression at high cell density” value in data set [2] (emetine 75 nM, vs infected untreated cells, not at lower cell density) is given as “significant reduction”. The half-life in data set [3] was 24 to 48 h. Also, in the data set on p21 mRNA (24 hpi), the “increase in p21 mRNA” value is listed as 5.4 fold. In addition, in the data set on p21 mRNA (72 hpi), the “increase in p21 mRNA” value was found to be 6.7 fold. In addition, the “time of addition after which activity against HCMV replication is lost” value in data set [4] (add-on) was > 12 h. In addition, the “time compound is required to fully inhibit HCMV” value in data set [4] (removal assay) was “at least 24 h”.
